In patent publication US20260207621A1 (Vividion Therapeutics, Inc., priority 2022, published 2026):

Legend:
KEAP1 C151 = target: T1, KEAP1 C151 (Homo sapiens, UniProt Q14145); assay: Nrf2 TMT measurement: in vitro TE50 for KEAP1 C151 (IA-DTB competition, targeted TMT mass spectrometry) in MDA-MB-468 cell lysate; assay type: binding; conditions: in vitro target engagement of KEAP1 C151, targeted TMT, read-out: KEAP1_C151 TE50
T1 construct: treating 500 μg of cell lysate generated from MDA-MB-468 breast cancer cells with DMSO or compound; endogenous in cells; host or cells: MDA-MB-468 breast cancer cell lysate
T1 sequence (Q14145 whole entry): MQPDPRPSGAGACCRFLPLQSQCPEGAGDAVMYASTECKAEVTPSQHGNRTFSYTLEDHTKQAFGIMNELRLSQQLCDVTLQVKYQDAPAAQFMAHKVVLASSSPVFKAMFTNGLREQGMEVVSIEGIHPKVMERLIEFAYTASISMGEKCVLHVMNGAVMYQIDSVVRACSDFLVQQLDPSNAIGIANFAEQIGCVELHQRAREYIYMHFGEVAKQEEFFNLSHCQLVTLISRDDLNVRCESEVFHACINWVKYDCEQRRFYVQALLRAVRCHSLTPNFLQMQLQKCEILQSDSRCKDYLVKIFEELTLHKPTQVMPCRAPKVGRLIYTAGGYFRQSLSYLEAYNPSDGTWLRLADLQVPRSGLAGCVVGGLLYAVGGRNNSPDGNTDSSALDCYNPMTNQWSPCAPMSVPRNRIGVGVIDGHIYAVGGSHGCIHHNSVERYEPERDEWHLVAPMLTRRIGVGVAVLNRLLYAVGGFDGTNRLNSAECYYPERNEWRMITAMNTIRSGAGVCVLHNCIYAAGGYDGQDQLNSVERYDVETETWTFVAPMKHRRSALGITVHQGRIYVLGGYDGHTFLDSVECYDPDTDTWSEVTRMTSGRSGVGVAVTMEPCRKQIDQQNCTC
Experimental: In vitro TE50 values for KEAP_C151 were obtained by treating 500 μg of cell lysate generated from MDA-MB-468 breast cancer cells with DMSO or compound for 1 hour at room temperature followed by the addition of 200 μM IA-DTB (in DMSO) for one hour at room temperature. Samples were then precipitated by the addition of 8× ice cold acetonitrile and incubated at −80° C. for two hours. Protein was then pelleted by centrifugation (4,200 RPM, 45 min, 4° C.). The pelleted material was resuspended in 9M Urea, 50 mM ammonium bicarbonate and proteins were reduced and alkylated by the addition of DTT and iodoacetamide (10 and 30 mM, respectively). Following reduction and alkylation, samples were exchanged into 2M urea (Zeba spin desalting plates, Thermo Fisher) and digested with Trypsin. IA-DTB labeled peptides were isolated with streptavidin agarose resin. Enriched peptides were eluted by the addition of 50% acetonitrile (ACN) 0.1% Formic Acid (FA) and dried in a SpeedVac vacuum concentrator.
Dried peptides were resuspended in 0.2 M EPPS pH 8.5 and treated with 6.5 μL of 11-plex tandem mass tag (TMT) (8.3 μg/μL in dry ACN) for 2 hours at room temperature. Reactions were quenched by the addition of 6.5 μL of 5% Hydroxylamine. Samples were then combined and desalted on a Biotage Evolute express ABN plate (600-0010-PX01).
Targeted TMT. Targeted TMT measurements were collected using an Orbitrap LumosTribrid Mass Spectrometer (Thermo Scientific) coupled to an UltiMate 3000 Series Rapid Separation LC system and autosampler (Thermo Scientific Dionex). Peptides were eluted onto a custom C18 capillary analytical column (75-μm inner diameter fused silica, packed with Acclaim PepMap C18 resin (Thermo Scientific)) using an Acclaim PepMap 100 (Thermo 164535) loading column, and separated at a flow rate of 1.0 μl min−1. Data were acquired using a specific MS3-based TMT method targeting the peptide containing KEAP1 C151 (C(+324.2)[…], +3 charge state) where MS2 peptide fragmentation is triggered upon detection of the peptide precursor ion. Subsequent MS3 analysis was then performed using pre-selected peptide fragment ions that were isolated for fragmentation using synchronous precursor selection. RAW files were converted to MZXML format and searched with the SEQUEST algorithm using the MassPike software package. TMT quantitation was performed with a filter requiring at least ten summed signal-to-noise for control channels. Quantified signals were used for dose response curve-fitting and IC50 calculation using R's drc package.

Nrf2 = Nrf2 antagonism assay: ARE luciferase reporter in KYSE-70 cells; assay type: cell-based; conditions: Homo sapiens, KYSE-70, KYSE-70 cells, positive Imax corresponds to Nrf2 antagonism, read-out: KYSE70 Cellular ARE Luciferase Imax (%)
From the text: NRF2 binds to a promoter region, antioxidant response element (ARE), to initiate expression of multiple genes. ARE luciferase reporter assays are used to test whether a ligand can activate or repress the expression of target genes using luciferase as a reporter gene.
KYSE-70 is an esophageal squamous cell carcinoma cell line with a Nrf2 mutation at amino acid position W24C. This mutation lowers the affinity between the E3 ligase that includes KEAP1 and Nrf2, resulting in a state in which the synthesis rate of new Nrf2 is faster than the E3's degradation rate of Nrf2, resulting in a “Nrf2 high” state. In KYSE-70 cells, genes are inserted directly after the ARE that trigger the expression of luciferase. Without a NRF2 antagonist in this modified KYSE70 cell line which has an inherently “NRF2 high state”, luciferase is expressed, and a signal is observed.
Nrf2 antagonists bind at C151 of KEAP1 and stabilize the E3 which results in an increased degradation rate of Nrf2. Increased degradation of Nrf2 results in less expression of luciferase, and therefore a less intense signal.
An IC50 is generated from the dose-response curve and an Imax. A positive Imax corresponds to Nrf2 antagonism. Imax >90% correlates with in vivo tumor grown inhibition. Compounds with Imax >50% were included in this description.

Row | SMILES | IC50 (KEAP1 C151) | Emax (Nrf2)
1 | C=CC(=O)N1CCOCC1c1cc(Cl)cc(-c2ccccc2)c1 (racemic) [Compound 1, 1-(3-(5-chloro-[1,1′-biphenyl]-3-yl)morpholino)prop-2-en-1-one] | 410 nM | 56%
2 | C=CC(=O)N1CCOCC12COc1c(-c3ccccc3)cc(Cl)cc12 (racemic) [Compound 7, 1-(5-chloro-7-phenyl-2H-spiro[benzofuran-3,3′-morpholin]-4′-yl)prop-2-en-1-one] | 5260 nM | 55%
3 | C=CC(=O)N1CCS(=O)(=O)CC1c1cc(Cl)cc(C2CCOCC2)c1 (racemic) [Compound 28, 1-(3-(3-chloro-5-(tetrahydro-2H-pyran-4-yl)phenyl)-1,1-dioxidothiomorpholino)prop-2-en-1-one] | 150 nM | 50%
4 | C=CC(=O)N1CCS(=O)(=O)CC1c1cc(Cl)cc(-c2ccn(C)c(=O)c2)c1 (racemic) [Compound 29, 4-(3-(4-acryloyl-1,1-dioxidothiomorpholin-3-yl)-5-chlorophenyl)-1-methylpyridin-2(1H)-one] | 330 nM | 62%
5 | C=CC(=O)N1CCCOCC1c1cc(Cl)cc(-c2ncnc(N)n2)c1 (racemic) [Compound 162, 1-(3-(3-(4-amino-1,3,5-triazin-2-yl)-5-chlorophenyl)-1,4-oxazepan-4-yl)prop-2-en-1-one] | 600 nM | 80%
6 | C=CC(=O)N1CCOCC1c1cc(Cl)cc(C2CCOCC2)c1 (single isomer, unassigned) [Compound 5, 1-(3-(3-chloro-5-(tetrahydro-2H-pyran-4-yl)phenyl)morpholino)prop-2-en-1-one] | 130 nM | 70%
7 | C=CC(=O)N1CCOCC1c1cc(Cl)cc(-c2ccnnc2)c1 (single isomer, unassigned) [Compound 14, 1-(3-(3-chloro-5-(pyridazin-4-yl)phenyl)morpholino)prop-2-en-1-one] | 144 nM | 55%
8 | C=CC(=O)N1CCOC[C@H]1c1cc(Cl)cc(-c2nc(N)nc(Cl)n2)c1 (single isomer, unassigned) [Compound 199] |  | 92%
9 | C=CC(=O)N1CCN(C(=O)C2CC2)C[C@H]1c1cc(Cl)cc(-c2ncc(N)cn2)c1 (single isomer, unassigned) [Compound 200] |  | 91%
10 | C=CC(=O)N1[C@H](c2cc(Cl)nc(-c3cc(N)ncn3)c2)COC[C@H]1C(F)F (single isomer, unassigned) [Compound 202] |  | 94%
11 | [2H]c1nc(N)nc(-c2cc(Cl)cc([C@@H]3COCCN3C(=O)C=C)c2)n1 (single isomer, unassigned) [Compound 208] |  | 94%
12 | C=CC(=O)N1CCOC[C@H]1c1cc(Cl)cc(-c2ncnc(NCCO)n2)c1 (single isomer, unassigned) [Compound 219] |  | 81%
13 | Nc1ncnc(-c2cc(Cl)cc([C@@H]3COCCN3C(=O)C=C3CC3)c2)n1 (single isomer, unassigned) [Compound 293] |  | 54%
14 | C=C(F)C(=O)N1CCOC[C@H]1c1cc(Cl)cc(-c2ncnc(N)n2)c1 (single isomer, unassigned) [Compound 297] |  | 58%
15 | C=CC(=O)N1C[C@@H](F)COC[C@H]1c1cc(Cl)nc(-c2cc(N)ncn2)c1 [Compound 198, 1-((3R,6R)-3-(2-(6-aminopyrimidin-4-yl)-6-chloropyridin-4-yl)-6-fluoro-1,4-oxazepan-4-yl)prop-2-en-1-one] |  | 93%
16 | C=CC(=O)N1[C@H](c2cc(Cl)nc(-c3cc(C)ncn3)c2)COC[C@H]1C(F)F [Compound 201, 1-((3R,5S)-3-(2-chloro-6-(6-methylpyrimidin-4-yl)pyridin-4-y1)-5-(difluoromethyl)morpholino)prop-2-en-1-one] |  | 93%

Second part, led by results:

Row | IC50 (KEAP1 C151) | SMILES | Emax (Nrf2)
17 | 10.7 nM | C=CC(=O)N1CCOC[C@H]1c1cc(Cl)cc(-c2cccc(NC(C)=O)c2)c1 (single isomer, unassigned) [Compound 2] | 52%
18 | 2.6 nM | C=CC(=O)N1CCN(S(C)(=O)=O)CC1c1cc(Cl)cc(-c2ccnc(NC(C)=O)c2)c1 (single isomer, unassigned) [Compound 6, N-(4-(3-(1-acryloyl-4-(methylsulfonyl)piperazin-2-yl)-5-chlorophenyl)pyridin-2-yl)acetamide] | 58%
19 | 55 nM | C=CC(=O)N1CCOCC1c1cc(C#N)cc(-c2ncccn2)c1 (single isomer, unassigned) [Compound 8, 3-(4-acryloylmorpholin-3-yl)-5-(pyrimidin-2-yl)benzonitrile] | 53%
20 | 60.5 nM | C=CC(=O)N1CCOC[C@H]1c1cc(Cl)cc(-c2nnn(C)n2)c1 (single isomer, unassigned) [Compound 9] | 76%
21 | 22.8 nM | C=CC(=O)N1CCOC[C@H]1c1cc(Cl)cc(-c2ncccn2)c1 (single isomer, unassigned) [Compound 10] | 79%
22 | 67 nM | C=CC(=O)N1CCOCC1c1cc(Cl)cc(-c2cc[nH]c(=O)c2)c1 (single isomer, unassigned) [Compound 11, 4-(3-(4-acryloylmorpholin-3-yl)-5-chlorophenyl)pyridin-2(1H)-one] | 79%
23 | 3.9 nM | C=CC(=O)N1CCOC[C@H]1c1cc(Cl)cc(-c2ccnc(N3CCCC3=O)c2)c1 (single isomer, unassigned) [Compound 12] | 68%
24 | 50 nM | C=CC(=O)N1CCOC[C@H]1c1cc(Cl)cc(-c2ccn(C)c(=O)c2)c1 (single isomer, unassigned) [Compound 13] | 72%
25 | 22 nM | C=CC(=O)N1CCN(S(C)(=O)=O)C[C@H]1c1cc(Cl)cc(-c2cc[nH]c(=O)c2)c1 (single isomer, unassigned) [Compound 15] | 57%
26 | 2.2 nM | C=CC(=O)N1CCN(S(C)(=O)=O)C[C@H]1c1cc(Cl)cc(-c2ccnc(N3CCCC3=O)c2)c1 (single isomer, unassigned) [Compound 16] | 62%
27 | 96.3 nM | C=CC(=O)N1CCN(C(C)=O)C[C@H]1c1cc(Cl)cc(-c2ncccn2)c1 (single isomer, unassigned) [Compound 17] | 65%
28 | 10 nM | C=CC(=O)N1[C@H](C)COC[C@H]1c1cc(Cl)cc(-c2ccnc(N3CCCC3=O)c2)c1 (single isomer, unassigned) [Compound 18] | 69%
29 | 33 nM | C=CC(=O)N1CCOC[C@H]1c1cc(Cl)cc(-c2ncc(F)cn2)c1 (single isomer, unassigned) [Compound 19] | 84%
30 | 88 nM | C=CC(=O)N1CCN(C(C)=O)C[C@H]1c1cc(Cl)cc(C2CCOCC2)c1 (single isomer, unassigned) [Compound 26] | 56%
31 | 36 nM | C=CC(=O)N1CCS(=O)(=O)CC1c1cc(Cl)cc(-c2ncccn2)c1 (single isomer, unassigned) [Compound 31, 1-(3-(3-chloro-5-(pyrimidin-2-yl)phenyl)-1,1-dioxidothiomorpholino)prop-2-en-1-one] | 66%
32 | 63 nM | C=CC(=O)N1CCS(=O)(=O)CC1c1cc(Cl)cc(-c2nnn(C)n2)c1 (single isomer, unassigned) [Compound 32, 1-(3-(3-chloro-5-(2-methyl-2H-tetrazol-5-yl)phenyl)-1,1-dioxidothiomorpholino)prop-2-en-1-one] | 52%
